Values of other authors in US8173824B2, “Process for producing vitamin D derivative using convergent method” (Chugai Seiyaku Kabushiki Kaisha, priority 2005, dated 2012).

Columns and labels:
human keratinocyte = conditions: background statement, see WO 2001/096293
[1] = compared with the conventional vitamin D derivatives; background statement

C=C1/C(=C\C=C2/CCC[C@]3(C)C([C@H](C)OCC(=O)NCC(F)(F)C(F)(F)F)=CCC23)C[C@@H](O)C[C@@H]1O (stereo partly drawn) [Formula (1), [{(5Z,7E)-(1S,3R,20S)-1,3-dihydroxy-9,10-secopregna-5,7,10(19),16-tetraen-20-yl}oxy]-N-(2,2,3,3,3-pentafluoropropyl)acetamide]
human keratinocyte growth inhibition activity (human keratinocyte): exhibits useful human keratinocyte growth inhibition activity | calcium level-raising activity [1]: lower than the conventional vitamin D derivatives
